Usually EC50 stands for the concentration giving half of the maximal effect. High values mean a need for much substance, low ones an effect from little substance.

Experimental findings from US9062124B2, “GIP-based mixed agonists for treatment of metabolic disorders and obesity” (priority 2008, dated 2015) are described below.

Where a SMILES comes first, the peptide text is derived from it. Bridges are numbered along the chain shown (N, C = ends). [ ]: non-standard residue; d: D form. Aib = CC(C)(N)C(=O)O

Assay type in all cases: cell-based
In assay [1] the target is T1, glucagon receptor (Homo sapiens, UniProt P47871).
T1 construct: expressed in transfected cells; host or cells: HEK293
T1 sequence (P47871 26-477): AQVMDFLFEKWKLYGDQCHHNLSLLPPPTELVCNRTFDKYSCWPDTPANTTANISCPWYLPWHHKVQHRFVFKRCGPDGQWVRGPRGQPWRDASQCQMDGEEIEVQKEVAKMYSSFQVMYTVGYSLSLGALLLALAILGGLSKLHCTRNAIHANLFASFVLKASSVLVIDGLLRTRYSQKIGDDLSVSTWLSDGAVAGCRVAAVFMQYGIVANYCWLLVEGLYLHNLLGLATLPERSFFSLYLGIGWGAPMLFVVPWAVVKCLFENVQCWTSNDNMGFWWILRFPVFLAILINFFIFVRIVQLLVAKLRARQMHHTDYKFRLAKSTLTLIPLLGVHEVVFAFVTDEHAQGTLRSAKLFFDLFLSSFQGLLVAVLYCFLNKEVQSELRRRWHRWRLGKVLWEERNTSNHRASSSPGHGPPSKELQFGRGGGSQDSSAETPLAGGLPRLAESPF
The assay can be described thus: cAMP synthesis functional assay (firefly luciferase reporter in HEK293 cells), glucagon receptor. To be noted: Table 1; for Glucagon Receptor relative activity: relative to the native hormone of the indicated receptor; for EC50: Glucagon Receptor EC50, nM. (A reporter such as luciferase makes a cellular process visible.)

In assay [2] the target is T2, GLP-1 receptor (Homo sapiens, UniProt P43220).
T2 construct: expressed in transfected cells; host or cells: HEK293
T2 sequence (P43220 24-463, species assumed): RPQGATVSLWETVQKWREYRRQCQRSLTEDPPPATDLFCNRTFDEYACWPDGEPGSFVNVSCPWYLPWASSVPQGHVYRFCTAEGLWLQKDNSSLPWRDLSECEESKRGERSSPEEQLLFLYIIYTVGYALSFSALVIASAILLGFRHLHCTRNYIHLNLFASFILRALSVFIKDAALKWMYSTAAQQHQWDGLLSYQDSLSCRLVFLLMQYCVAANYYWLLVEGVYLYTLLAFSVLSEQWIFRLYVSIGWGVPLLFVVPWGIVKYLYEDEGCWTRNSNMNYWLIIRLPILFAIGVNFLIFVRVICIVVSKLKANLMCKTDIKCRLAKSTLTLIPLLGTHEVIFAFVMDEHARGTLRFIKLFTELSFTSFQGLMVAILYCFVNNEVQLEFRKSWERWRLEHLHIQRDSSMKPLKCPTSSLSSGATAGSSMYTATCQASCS
Put plainly: cAMP synthesis functional assay (firefly luciferase reporter in HEK293 cells), GLP-1 receptor. The settings on record: Table 1; for GLP-1 Receptor relative activity: relative to the native hormone of the indicated receptor.

Assay [3] addresses T3, GIP receptor (Homo sapiens, UniProt P48546).
T3 construct: expressed in transfected cells; host or cells: HEK293
T3 sequence (P48546 22-466): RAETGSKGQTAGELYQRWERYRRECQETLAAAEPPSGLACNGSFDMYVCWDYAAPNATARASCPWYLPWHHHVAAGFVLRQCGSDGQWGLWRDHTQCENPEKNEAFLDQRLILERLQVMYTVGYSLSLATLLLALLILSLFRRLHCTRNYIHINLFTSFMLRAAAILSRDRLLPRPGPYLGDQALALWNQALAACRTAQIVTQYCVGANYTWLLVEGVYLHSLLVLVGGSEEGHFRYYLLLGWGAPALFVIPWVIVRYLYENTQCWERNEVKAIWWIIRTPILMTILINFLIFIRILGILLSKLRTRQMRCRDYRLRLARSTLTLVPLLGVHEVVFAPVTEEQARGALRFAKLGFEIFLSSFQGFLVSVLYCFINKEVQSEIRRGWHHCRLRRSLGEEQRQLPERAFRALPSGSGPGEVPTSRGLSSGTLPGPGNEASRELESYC
The assay can be described thus: cAMP synthesis functional assay (firefly luciferase reporter in HEK293 cells), GIP receptor. To be noted: Table 1; for GIP Receptor relative activity: relative to the native hormone of the indicated receptor.

As to `CC[C@H](C)[C@H](NC(=O)[C@H](CO)NC(=O)[C@H](Cc1ccc(O)cc1)NC(=O)[C@H](CC(=O)O)NC(=O)[C@H](CO)NC(=O)[C@@H](NC(=O)[C@H](Cc1ccccc1)NC(=O)[C@@H](NC(=O)CNC(=O)[C@H](CCC(N)=O)NC(=O)[C@H](CO)NC(=O)[C@@H](N)Cc1ccc(O)cc1)[C@@H](C)O)[C@@H](C)O)C(=O)N[C@@H](Cc1ccc(O)cc1)C(=O)N[C@@H](CC(C)C)C(=O)N[C@@H](CC(=O)O)C(=O)N[C@@H](CCC(=O)O)C(=O)N[C@H]1CCC(=O)NCCCC[C@@H](C(=O)N[C@@H](CCC(=O)O)C(=O)N[C@@H](Cc2ccccc2)C(=O)N[C@H](C(=O)N[C@@H](CC(N)=O)C(=O)N[C@@H](Cc2c[nH]c3ccccc23)C(=O)N[C@@H](CC(C)C)C(=O)N[C@@H](CC(C)C)C(=O)N[C@@H](C)C(=O)NCC(=O)NCC(=O)N2CCC[C@H]2C(=O)N[C@@H](CO)C(=O)N[C@@H](CO)C(=O)NCC(=O)N[C@@H](C)C(=O)N2CCC[C@H]2C(=O)N2CCC[C@H]2C(=O)N2CCC[C@H]2C(=O)N[C@@H](CO)C(N)=O)C(C)C)NC(=O)[C@H](C)NC(=O)[C@H](C)NC1=O` [mt-167] (H-YSQGTFTSDYSIYLDEEAAKEFVNWLLAGGPSSGAPPPS-NH2; lactam 17-20; N-terminus assumed), the “Glucagon Receptor relative activity” value in assay [1] was found to be 34.53%. Further, the “GLP-1 Receptor relative activity” value in assay [2] is recorded as 7.94%. Also, the “GIP Receptor relative activity” value in assay [3] is 5.01%.

`CC[C@H](C)[C@H](NC(=O)[C@H](CO)NC(=O)[C@H](Cc1ccc(O)cc1)NC(=O)[C@H](CC(=O)O)NC(=O)[C@H](CO)NC(=O)[C@@H](NC(=O)[C@H](Cc1ccccc1)NC(=O)[C@@H](NC(=O)CNC(=O)[C@H](CCC(N)=O)NC(=O)[C@H](CO)NC(=O)[C@@H](N)Cc1ccc(O)cc1)[C@@H](C)O)[C@@H](C)O)C(=O)N[C@@H](Cc1ccc(O)cc1)C(=O)N[C@@H](CC(C)C)C(=O)N[C@@H](CC(=O)O)C(=O)N[C@@H](CCC(=O)O)C(=O)N[C@@H](CCC(N)=O)C(=O)N[C@H]1CCCCNC(=O)CC[C@@H](C(=O)N[C@@H](Cc2ccccc2)C(=O)N[C@H](C(=O)N[C@@H](CC(N)=O)C(=O)N[C@@H](Cc2c[nH]c3ccccc23)C(=O)N[C@@H](CC(C)C)C(=O)N[C@@H](CC(C)C)C(=O)N[C@@H](C)C(=O)NCC(=O)NCC(=O)N2CCC[C@H]2C(=O)N[C@@H](CO)C(=O)N[C@@H](CO)C(=O)NCC(=O)N[C@@H](C)C(=O)N2CCC[C@H]2C(=O)N2CCC[C@H]2C(=O)N2CCC[C@H]2C(=O)N[C@@H](CO)C(N)=O)C(C)C)NC(=O)[C@H](CCCCN)NC(=O)[C@H](C)NC1=O` [mt-168] (H-YSQGTFTSDYSIYLDEQKAKEFVNWLLAGGPSSGAPPPS-NH2; lactam 18-21; N-terminus assumed): in assay [1], the EC50 stood at 2.61 nM and the “Glucagon Receptor relative activity” value amounted to 4.79%. Further, in assay [2], the “GLP-1 Receptor relative activity” value was 1.45%. The “GIP Receptor relative activity” value in assay [3] is reported as 0.32%.

Regarding `CC[C@H](C)[C@H](NC(=O)[C@H](CO)NC(=O)[C@H](Cc1ccc(O)cc1)NC(=O)[C@H](CC(=O)O)NC(=O)[C@H](CO)NC(=O)[C@@H](NC(=O)[C@H](Cc1ccccc1)NC(=O)[C@@H](NC(=O)CNC(=O)[C@H](CCC(N)=O)NC(=O)C(C)(C)N)[C@@H](C)O)[C@@H](C)O)C(=O)N[C@@H](Cc1ccc(O)cc1)C(=O)N[C@@H](CC(C)C)C(=O)N[C@@H](CC(=O)O)C(=O)N[C@H]1CCC(=O)NCCCC[C@@H](C(=O)N[C@@H](CCC(=O)O)C(=O)N[C@@H](Cc2ccccc2)C(=O)N[C@H](C(=O)N[C@@H](CC(N)=O)C(=O)N[C@@H](Cc2c[nH]c3ccccc23)C(=O)N[C@@H](CC(C)C)C(=O)N[C@@H](CC(C)C)C(=O)N[C@@H](C)C(=O)NCC(N)=O)C(C)C)NC(=O)[C@H](C)NC(=O)[C@H](C)NC(=O)[C@H](CCC(N)=O)NC1=O` [mt-198] (H-[Aib]QGTFTSDYSIYLDEQAAKEFVNWLLAG-NH2; lactam 15-19; N-terminus assumed), the “Glucagon Receptor relative activity” value in assay [1] came to 0.53%. Also, the “GLP-1 Receptor relative activity” value in assay [2] worked out at 0.17%. Further, the “GIP Receptor relative activity” value in assay [3] was determined as 0.02%.

As for `CC[C@H](C)[C@H](NC(=O)[C@H](CO)NC(=O)[C@H](Cc1ccc(O)cc1)NC(=O)[C@H](CC(=O)O)NC(=O)[C@H](CO)NC(=O)[C@@H](NC(=O)[C@H](Cc1ccccc1)NC(=O)[C@@H](NC(=O)CNC(=O)[C@H](CCC(N)=O)NC(=O)C(C)(C)NC(=O)[C@@H](N)Cc1ccc(O)cc1)[C@@H](C)O)C(C)C)C(=O)N[C@@H](Cc1ccc(O)cc1)C(=O)N[C@@H](CC(C)C)C(=O)N[C@@H](CC(=O)O)C(=O)N[C@H]1CCC(=O)NCCCC[C@@H](C(=O)N[C@@H](CCC(=O)O)C(=O)N[C@@H](Cc2ccccc2)C(=O)N[C@H](C(=O)N[C@@H](CC(N)=O)C(=O)N[C@@H](Cc2c[nH]c3ccccc23)C(=O)N[C@@H](CC(C)C)C(=O)N[C@@H](CC(C)C)C(=O)N[C@@H](C)C(=O)NCC(=O)NCC(=O)N2CCC[C@H]2C(=O)N[C@@H](CO)C(=O)N[C@@H](CO)C(=O)NCC(=O)N[C@@H](C)C(=O)N2CCC[C@H]2C(=O)N2CCC[C@H]2C(=O)N2CCC[C@H]2C(=O)N[C@@H](CO)C(=O)N[C@@H](CS)C(N)=O)C(C)C)NC(=O)[C@H](C)NC(=O)[C@H](C)NC(=O)[C@H](CCC(N)=O)NC1=O` [mt-199] (H-Y[Aib]QGTFVSDYSIYLDEQAAKEFVNWLLAGGPSSGAPPPSC-NH2; lactam 16-20; N-terminus assumed), the EC50 in assay [1] was 0.214 nM; in assay [2] (GLP-1 Receptor EC50, nM), 2.8 nM; in assay [3] (GIP Receptor EC50, nM), 0.526 nM. Further, in assay [1], the “Glucagon Receptor relative activity” value is 31.31%. Further, the “GLP-1 Receptor relative activity” value in assay [2] was determined as 1.04%. The “GIP Receptor relative activity” value in assay [3] amounted to 5.51%.

With `CC(C)C[C@H](NC(=O)[C@H](CC(C)C)NC(=O)[C@H](Cc1c[nH]c2ccccc12)NC(=O)[C@H](CC(N)=O)NC(=O)[C@@H](NC(=O)[C@H](Cc1ccccc1)NC(=O)[C@H](CCC(=O)O)NC(=O)[C@@H]1CCCCNC(=O)CC[C@H](NC(=O)[C@H](CC(=O)O)NC(=O)[C@H](CC(C)C)NC(=O)[C@H](Cc2ccc(O)cc2)NC(=O)[C@@H]2CCCCNC(=O)CC[C@H](NC(=O)[C@H](CO)NC(=O)[C@@H](NC(=O)[C@H](Cc3ccccc3)NC(=O)[C@@H](NC(=O)CNC(=O)[C@H](CCC(N)=O)NC(=O)C(C)(C)NC(=O)[C@@H](N)Cc3ccc(O)cc3)[C@@H](C)O)[C@@H](C)O)C(=O)N[C@@H](Cc3ccc(O)cc3)C(=O)N[C@@H](CO)C(=O)N2)C(=O)N[C@@H](CCC(N)=O)C(=O)N[C@@H](C)C(=O)N[C@@H](C)C(=O)N1)C(C)C)C(=O)N[C@@H](C)C(=O)NCC(=O)NCC(=O)N1CCC[C@H]1C(=O)N[C@@H](CO)C(=O)N[C@@H](CO)C(=O)NCC(=O)N[C@@H](C)C(=O)N1CCC[C@H]1C(=O)N1CCC[C@H]1C(=O)N1CCC[C@H]1C(=O)N[C@@H](CO)C(=O)N[C@@H](CS)C(N)=O` [mt-209] (H-Y[Aib]QGTFTSEYSKYLDEQAAKEFVNWLLAGGPSSGAPPPSC-NH2; lactam 9-12, 16-20; N-terminus assumed), the “Glucagon Receptor relative activity” value in assay [1] was 0.90%. The “GLP-1 Receptor relative activity” value in assay [2] is 1.33%. Also, the “GIP Receptor relative activity” value in assay [3] is reported as 1.42%.
